Source: patent publication US7786141B2 (Vertex Pharmaceuticals Incorporated, priority 2004, dated 2010)

Experiments:
M4 muscarinic receptor = biological target: T1, M4 muscarinic receptor (Homo sapiens, UniProt P08173); test: Functional mobilization of intracellular calcium (FLIPR) in M4-CHO cells; assay type: cell-based; details: M4 receptor, calcium mobilization; for Emax: read-out: M4 Efficacy
T1 construct: expressed in transfected cells; host or cells: CHO (M4-CHO)
T1 sequence (P08173 1-479): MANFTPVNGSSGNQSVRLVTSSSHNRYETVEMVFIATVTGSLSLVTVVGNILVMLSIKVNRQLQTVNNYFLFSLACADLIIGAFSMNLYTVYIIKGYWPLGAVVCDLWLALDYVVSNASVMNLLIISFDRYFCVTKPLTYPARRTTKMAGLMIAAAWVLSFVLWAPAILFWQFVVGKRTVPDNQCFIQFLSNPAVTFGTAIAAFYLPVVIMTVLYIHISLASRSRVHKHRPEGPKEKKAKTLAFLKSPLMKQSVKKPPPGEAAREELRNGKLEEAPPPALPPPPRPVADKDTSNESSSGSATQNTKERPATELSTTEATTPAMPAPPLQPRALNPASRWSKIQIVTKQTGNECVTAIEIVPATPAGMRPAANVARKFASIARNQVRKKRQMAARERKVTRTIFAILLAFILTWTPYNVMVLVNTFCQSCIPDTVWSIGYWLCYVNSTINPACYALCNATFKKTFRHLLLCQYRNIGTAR
In short: (§1)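 CHO cells stably expressing human M1 or M4 receptor were loaded with Fluo-3 AM (or Calcium 3 dye) in Hepes-buffered saline, pH 7.4, with 1 mM probenecid, 0.5% final DMSO. Agonist mode: compound added directly; antagonist mode: 15 min preincubation before carbachol at EC80. FLIPR fluorescence recorded 60 sec.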

M1 muscarinic receptor = biological target: T2, M1 muscarinic receptor (Homo sapiens, UniProt P11229); test: Functional mobilization of intracellular calcium (FLIPR) in M1-CHO cells; assay type: cell-based; details: M1 receptor, calcium mobilization; for Emax: read-out: M1 Efficacy
T2 construct: expressed in transfected cells; host or cells: CHO (M1-CHO)
T2 sequence (P11229 1-460): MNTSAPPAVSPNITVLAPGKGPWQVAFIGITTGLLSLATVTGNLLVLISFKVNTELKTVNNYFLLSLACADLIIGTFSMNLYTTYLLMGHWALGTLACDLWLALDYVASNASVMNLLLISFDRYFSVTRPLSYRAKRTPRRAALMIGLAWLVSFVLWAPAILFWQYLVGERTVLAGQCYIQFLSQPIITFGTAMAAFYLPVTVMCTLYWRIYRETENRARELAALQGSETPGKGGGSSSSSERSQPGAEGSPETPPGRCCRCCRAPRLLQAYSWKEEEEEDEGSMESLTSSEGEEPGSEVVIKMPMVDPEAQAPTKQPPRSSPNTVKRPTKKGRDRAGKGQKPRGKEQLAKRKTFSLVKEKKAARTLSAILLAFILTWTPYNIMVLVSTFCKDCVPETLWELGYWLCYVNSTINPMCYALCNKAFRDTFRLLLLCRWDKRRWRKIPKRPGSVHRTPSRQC
In short: as §1

| Compound | M4 Activity (M4 muscarinic receptor) | Emax (M4 muscarinic receptor) [%] | M1 Activity (M1 muscarinic receptor) | Emax (M1 muscarinic receptor) [%] |
| --- | --- | --- | --- | --- |
| O=C(C1CCC1)N1C2CCC1CC(N1CCC3(CC1)COc1ccc(F)cc13)C2 (stereo not shown) [compound 134] | xx (activity was measured to be between 0.1 μM and 1.0 μM) | < 65 | xxx (activity was measured to be less than 0.1 μM) | > 85 |
| CC(=O)N1CC2(CCN(CC3CCOC3)CC2)c2cc(F)ccc21 (stereo not shown) [compound 135] | xx (activity was measured to be between 0.1 μM and 1.0 μM) | > 85 | xxx (activity was measured to be less than 0.1 μM) | > 85 |
| CCOC(=O)N1CCC(N2CCC3(CC2)CN(C(=O)C2CC2)c2ccc(F)cc23)CC1 [compound 136] | xxx (activity was measured to be less than 0.1 μM) | > 85 | xxx (activity was measured to be less than 0.1 μM) | > 85 |
| CCOC(=O)N1CCC(N2CCC3(CC2)CN(C(C)=O)c2ccc(CC)cc23)CC1 [compound 137] | x (activity was measured to be greater than 1.0 μM) | > 85 | xxx (activity was measured to be less than 0.1 μM) | > 85 |
| CC(=O)N1CC2(CCN(C3CC4CCC3C4)CC2)c2cc(C)ccc21 (stereo not shown) [compound 138] | x (activity was measured to be greater than 1.0 μM) | 65 to 85 | xxx (activity was measured to be less than 0.1 μM) | 65 to 85 |
| CC(C)OC(=O)N1C2CCC1CC(N1CCC3(CC1)C(=O)Nc1ccccc13)C2 (stereo not shown) [compound 139] | xxx (activity was measured to be less than 0.1 μM) | > 85 | xxx (activity was measured to be less than 0.1 μM) | > 85 |
| CC(=O)N1CC2(CCN(C3CCN(C(=O)OC4CCC4)CC3)CC2)c2cc(F)ccc21 [compound 140] | xxx (activity was measured to be less than 0.1 μM) | > 85 | xxx (activity was measured to be less than 0.1 μM) | > 85 |
| CCOC(=O)N1CCC(N2CCC3(CC2)CN(C(C)=O)c2ccc(Cl)cc23)CC1 [compound 141] | xx (activity was measured to be between 0.1 μM and 1.0 μM) | > 85 | xxx (activity was measured to be less than 0.1 μM) | > 85 |
| CCOC(=O)N1CCC(N2CCC3(CC2)CN(C(=O)C(C)C)c2ccc(F)cc23)CC1 [compound 142] | x (activity was measured to be greater than 1.0 μM) | > 85 | xxx (activity was measured to be less than 0.1 μM) | 65 to 85 |
| CCOC(=O)N1CCC(N2CCC3(CC2)CN(C(=O)c2cccnc2)c2ccc(F)cc23)CC1 [compound 144] | xxx (activity was measured to be less than 0.1 μM) | > 85 | xxx (activity was measured to be less than 0.1 μM) | > 85 |
| CCOC(=O)N1CCC(N2CCC3(CC2)CN(C(=O)OC(C)C)c2ccc(F)cc23)CC1 [compound 145] | x (activity was measured to be greater than 1.0 μM) | > 85 | xxx (activity was measured to be less than 0.1 μM) | > 85 |
| CCOC(=O)N1CCC(N2CCC3(CC2)CN(C(C)=O)c2ccc(-c4ccccc4F)cc23)CC1 [compound 146] | xxx (activity was measured to be less than 0.1 μM) | > 85 | xxx (activity was measured to be less than 0.1 μM) | > 85 |
| Clc1ccc2c(c1)C1(CCN(CC3CC4C=CC3C4)CC1)CN2 (stereo not shown) [compound 147] | xx (activity was measured to be between 0.1 μM and 1.0 μM) | > 85 | xxx (activity was measured to be less than 0.1 μM) | 65 to 85 |
| CCOC(=O)N1C2CCC1CC(N1CCC3(CC1)C(=O)N(C)c1ccccc13)C2 (stereo not shown) [compound 149] | x (activity was measured to be greater than 1.0 μM) | > 85 | xxx (activity was measured to be less than 0.1 μM) | > 85 |
| CCOC(=O)N1CCC(N2CCC3(CC2)CN(C(C)=O)c2ccc(-c4ccccc4OC)cc23)CC1 [compound 150] | x (activity was measured to be greater than 1.0 μM) | > 85 | xxx (activity was measured to be less than 0.1 μM) | 65 to 85 |
| CC(=O)N1CC2(CCN(C3CCN(C(=O)OC4CCC4)CC3)CC2)c2cc(C)ccc21 [compound 151] | xxx (activity was measured to be less than 0.1 μM) | > 85 | xxx (activity was measured to be less than 0.1 μM) | > 85 |
| Fc1ccc2c(c1)C1(CCN(C3CCCCC3)CC1)CO2 [compound 152] | x (activity was measured to be greater than 1.0 μM) | > 85 | xx (activity was measured to be between 0.1 μM and 1.0 μM) | 65 to 85 |
| CCOC(=O)N1C2CCC1CC(N1CCC3(CC1)CNc1ccccc13)C2 (stereo not shown) [compound 153] | xxx (activity was measured to be less than 0.1 μM) | > 85 | xxx (activity was measured to be less than 0.1 μM) | > 85 |
| COC(=O)N1CCC(N2CCC3(CC2)CN(C(=O)N(C)C)c2ccc(F)cc23)CC1 [compound 154] | xxx (activity was measured to be less than 0.1 μM) | > 85 | xxx (activity was measured to be less than 0.1 μM) | 65 to 85 |
| Clc1ccc2c(c1)C1(CCN(C3CCCCC3)CC1)CN2 [compound 155] | x (activity was measured to be greater than 1.0 μM) | > 85 | xxx (activity was measured to be less than 0.1 μM) | > 85 |
| COC(=O)N1C2CCC1CC(N1CCC3(CC1)COc1ccc(F)cc13)C2 (stereo not shown) [compound 156] | xxx (activity was measured to be less than 0.1 μM) | > 85 | xxx (activity was measured to be less than 0.1 μM) | 65 to 85 |
| Clc1ccc2c(c1)C1(CCN(CC3CCCCC3)CC1)CN2 [compound 157] | x (activity was measured to be greater than 1.0 μM) | > 85 | xxx (activity was measured to be less than 0.1 μM) | 65 to 85 |
| CC(=O)N[C@H]1CC2(CCN(C3C[C@H]4CC[C@@H]3C4)CC2)c2ccccc21 (stereo partly shown) [compound 158] | x (activity was measured to be greater than 1.0 μM) | > 85 | xxx (activity was measured to be less than 0.1 μM) | > 85 |
| CC(=O)NC1CC2(CCN(C3CCCCCC3)CC2)c2ccccc21 (stereo not shown) [compound 159] | x (activity was measured to be greater than 1.0 μM) | > 85 | xx (activity was measured to be between 0.1 μM and 1.0 μM) | > 85 |
| CC(C)COC(=O)N1C2CCC1CC(N1CCC3(CC1)COc1ccc(F)cc13)C2 (stereo not shown) [compound 160] | xx (activity was measured to be between 0.1 μM and 1.0 μM) | > 85 | xxx (activity was measured to be less than 0.1 μM) | > 85 |
| CC(=O)NC1CC2(CCN(C[C@H]3C[C@H]4CC[C@H]3C4)CC2)c2ccccc21 (stereo partly shown) [compound 161] | x (activity was measured to be greater than 1.0 μM) | > 85 | xx (activity was measured to be between 0.1 μM and 1.0 μM) | > 85 |
| COCCOC(=O)N1C2CCC1CC(N1CCC3(CC1)CN(C(=O)O[C@@H]1CCOC1)c1ccc(F)cc13)C2 (stereo partly shown) [compound 162] | x (activity was measured to be greater than 1.0 μM) | > 85 | xxx (activity was measured to be less than 0.1 μM) | 65 to 85 |
| CC(=O)N1CC2(CCN(CC3=CCCCC3)CC2)c2cc(F)ccc21 [compound 163] | xx (activity was measured to be between 0.1 μM and 1.0 μM) | > 85 | xxx (activity was measured to be less than 0.1 μM) | 65 to 85 |
